Source: patent US11964984B2, “TXNIP-TRX complex inhibitors and methods of using the same” (CITY OF HOPE, priority 2020, dated 2024)

Molecular target: T1, TXNIP/TRX interaction (Homo sapiens, UniProt Q9H3M7)
T1 construct: endogenous in cells; host or cells: THP1 cells cultured under 25 mM glucose; nuclear cell extracts
T1 sequence (Q9H3M7 1-391): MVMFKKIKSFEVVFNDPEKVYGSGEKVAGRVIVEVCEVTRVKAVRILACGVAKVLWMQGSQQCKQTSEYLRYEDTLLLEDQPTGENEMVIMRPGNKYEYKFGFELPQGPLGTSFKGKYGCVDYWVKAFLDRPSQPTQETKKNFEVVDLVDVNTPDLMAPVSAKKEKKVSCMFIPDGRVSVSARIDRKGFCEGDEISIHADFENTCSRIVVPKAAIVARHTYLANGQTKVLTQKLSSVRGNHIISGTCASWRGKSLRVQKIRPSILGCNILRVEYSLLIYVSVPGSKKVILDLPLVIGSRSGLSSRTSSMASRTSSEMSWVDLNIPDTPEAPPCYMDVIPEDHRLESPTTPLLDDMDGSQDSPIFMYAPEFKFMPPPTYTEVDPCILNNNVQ
Assay: TXNIP/TRX co-immunoprecipitation in THP1 cells
Assay type: cell-based
Conditions: 25 mM glucose, 5 uM compound, up to 72 hours
Experimental: FIG. 8. Effects of C30 and C38 on TXNIP/TRX interaction. THP1 cells were cultured under 25 mM glucose with 5 uM C30 or C38 for 72 hours. Aliquots were taken at different time points as indicated and nuclear cell extracts were prepared. Standard co-IP was performed with mouse anti-TRX Ab overnight. Beads were washed with buffer and blots treated with rabbit anti-TXNIP antibody (Ab) for detection of the complex (upper band).
Experimental testing of small molecules: We developed several different bench-based assays to perform rigorous and reproducible tests for the predicted hit molecules. These assays include testing direct binding to TXNIP as well as functional assays including under diabetic high glucose conditions. The assays are: (1) drug affinity responsive target stability test that tests the direct binding of the compounds. In this assay, when a compound binds to its target molecule, it can reduce the rate of its proteolytic digestion. (2) This assay looks for compounds that can interfere with the interaction between TXNIP and TRX in THP-1 monocytes treated with high glucose. TXNIP is highly expressed in cells treated with high glucose, and therefore would have high concentration of TXNIP/TRX complexes in the cell extract. Co-immunoprecipitation was done in these extracts through adding TRX antibody, and then the effects of compounds added were tested. […]

Row | SMILES | TXNIP association/interaction with TRX (co-IP band)
1 | COc1cc(N2CC[C@@H](c3ccc4ccccc4c3)[C@H](O)C2)nc(N)n1 [Compound C30] | significantly reduced
2 | c1ccc(CCNc2ncnc3c2oc2ccccc23)cc1 [Compound C38] | this interference was clearly reduced
